Data taken from BigSolDB 2.1.

C=C(C)[C@@H]1CC[C@]2(C(=O)O)CC[C@]3(C)[C@H](CC[C@@H]4[C@@]5(C)CCC(=O)C(C)(C)[C@@H]5CC[C@]43C)[C@@H]12
solubility (mole fraction)
Details | 278.15 K | 283.15 K | 288.15 K | 293.15 K | 298.15 K | 303.15 K | 308.15 K | 313.15 K | 318.15 K
in 2-methoxyethanol | 0.00863 | 0.00923 | 0.00969 | 0.0103 | 0.0108 | 0.0117 | 0.0127 | 0.0137 | 0.0149
in 2-propoxyethanol | 0.0239 | 0.0248 | 0.025 | 0.0264 | 0.0274 | 0.0288 | 0.03 | 0.0314 | 0.0331
in ethanol | 0.00376 | 0.00399 | 0.00454 | 0.00503 | 0.00566 | 0.00617 | 0.00693 | 0.00757 | 0.00848
in isopropanol | 0.00531 | 0.00564 | 0.00651 | 0.0075 | 0.00865 | 0.00968 | 0.0114 | 0.0138 | 0.0158
in methanol | 0.00129 | 0.00136 | 0.00146 | 0.00157 | 0.00171 | 0.00192 | 0.00211 | 0.00234 | 0.0027
in n-propanol | 0.00728 | 0.00762 | 0.00827 | 0.00914 | 0.0104 | 0.0116 | 0.0131 | 0.0144 | 0.0163
